Test results: patent publication US6962920B2, “Pyrimidine derivatives and methods of making and using these derivatives” (Duquesne University of the Holy Ghost, priority 1992, dated 2005)
Read-outs that look alike come from different tables or passages of the source.

Legend:
[1] = target: T1, RL DHFR (Rattus norvegicus, UniProt Q920D2); assay: Inhibition of DHFR from rat liver; format: biochemical
T1 construct: Toxoplasmosis gondii (Tg) and rat liver (RL); from tissue; host or cells: rat liver
T1 sequence (Q920D2 1-187): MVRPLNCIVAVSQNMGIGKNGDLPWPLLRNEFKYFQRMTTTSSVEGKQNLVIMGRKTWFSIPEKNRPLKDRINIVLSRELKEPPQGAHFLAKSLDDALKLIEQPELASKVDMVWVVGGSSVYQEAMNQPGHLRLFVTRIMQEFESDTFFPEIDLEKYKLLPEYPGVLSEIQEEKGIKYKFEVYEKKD
Method: (§1) The selectivity ratio is a measure of the selectivity of a compound for Pc DHFR or Tg DHFR and is expressed as the IC50 value of the DHFR from rate liver (RL) divided by the IC50 value of either the Pc DHFR or the Tg DHFR, depending on which organism the compounds are being tested against. For example, the selectivity ratio of a compound is calculated by the following formula: [formula]

[2] = target: T2, Pc DHFR (Pneumocystis carinii, UniProt P16184); assay: biochemical
T2 sequence (P16184 1-206): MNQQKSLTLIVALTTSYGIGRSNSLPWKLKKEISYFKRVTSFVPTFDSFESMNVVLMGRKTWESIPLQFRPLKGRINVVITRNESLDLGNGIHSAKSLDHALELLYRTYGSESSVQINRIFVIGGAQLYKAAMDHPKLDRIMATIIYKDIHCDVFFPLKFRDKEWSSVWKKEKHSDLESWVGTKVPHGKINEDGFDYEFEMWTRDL

[3] = target: T2, Pc DHFR; format: biochemical; settings: for Selectivity ratio rl/pc: IC50 rlDHFR/IC50 pcDHFR
Method: as §1

[4] = target: T3, Tg DHFR (Toxoplasma gondii, UniProt Q07422); assay: biochemical; format: biochemical; settings: for rl/tg: selectivity ratio
T3 sequence (Q07422 1-610): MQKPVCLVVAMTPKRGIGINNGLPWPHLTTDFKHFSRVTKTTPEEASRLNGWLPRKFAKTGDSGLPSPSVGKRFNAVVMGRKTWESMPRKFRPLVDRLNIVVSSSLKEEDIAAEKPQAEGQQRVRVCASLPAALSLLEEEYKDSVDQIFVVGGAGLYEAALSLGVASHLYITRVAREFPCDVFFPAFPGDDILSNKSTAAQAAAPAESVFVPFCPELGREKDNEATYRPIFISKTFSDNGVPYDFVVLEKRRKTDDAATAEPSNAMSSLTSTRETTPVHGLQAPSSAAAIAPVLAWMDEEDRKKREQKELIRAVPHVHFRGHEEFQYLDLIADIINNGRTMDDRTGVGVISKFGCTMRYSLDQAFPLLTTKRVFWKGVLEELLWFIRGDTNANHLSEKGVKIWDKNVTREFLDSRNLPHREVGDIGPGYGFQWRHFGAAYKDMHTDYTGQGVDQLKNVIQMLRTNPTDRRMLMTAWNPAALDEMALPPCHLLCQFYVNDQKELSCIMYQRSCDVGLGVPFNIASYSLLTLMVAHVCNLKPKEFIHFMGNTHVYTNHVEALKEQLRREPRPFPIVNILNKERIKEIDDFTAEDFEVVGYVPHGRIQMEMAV
Method: as §1

[5] = target: E-coli thymidylate synthase (ecTS) (Escherichia coli, UniProt P0A884); assay: Inhibition of E. coli thymidylate synthase; format: biochemical; settings: for % in parentheses after the > value, ecTS: Table 22, at the concentration given
Method: All of the compounds were tested against human cells, L. casei, E. coli, and S. faecium.

[6] = Table 16, read-out: RL DHFR IC50
[7] = Table 16, read-out: Pc DHFR IC50
[8] = Table 25, read-out: Inhibitor Concentrations (IC50) pcDHFR
[9] = Table 25, read-out: Inhibitor Concentrations (IC50) rlDHFR
[10] = Table 16, read-out: Tg DHFR IC50
[11] = Table 25, read-out: Inhibitor Concentrations (IC50) tgDHFR
[12] = Table 22, read-out: tgDHFR IC50
[13] = Table 22, read-out: pcDHFR IC50
[14] = Table 22, read-out: rlDHFR IC50

E-coli thymidylate synthase (ecTS), sequence (P0A884 whole entry): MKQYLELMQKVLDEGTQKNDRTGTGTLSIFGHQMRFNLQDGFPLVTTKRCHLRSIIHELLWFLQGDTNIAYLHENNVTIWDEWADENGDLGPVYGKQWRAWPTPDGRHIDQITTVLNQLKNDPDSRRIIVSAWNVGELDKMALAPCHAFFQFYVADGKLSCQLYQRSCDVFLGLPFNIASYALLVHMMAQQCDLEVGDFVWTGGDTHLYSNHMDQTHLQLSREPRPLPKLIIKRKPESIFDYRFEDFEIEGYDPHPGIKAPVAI

Row | Structure (SMILES) | IC50 [4, 12] | rl/tg ([4]; Table 22) | IC50 [2, 13] | IC50 [1, 14] | IC50 [5] | % in parentheses after the > value, ecTS [5] | also measured
1 | Nc1nc(N)c2c(CNc3ccccc3-c3ccccc3)coc2n1 [Compound 167, 2,4-Diamino-5-[(2′-phenylanilino)methyl]furo[2,3-d]pyrimidine] |  |  |  |  |  |  | IC50 [1, 6]: 187 µM
2 | Nc1nc(N)c2c(CNc3cc(Cl)ccc3Cl)coc2n1 [Compound 169, 2,4-Diamino-5-[(2′,5′-dichloroanilino)methyl]furo[2,3-d]pyrimidine] |  |  |  |  |  |  | IC50 [2, 7]: 50.9 µM; IC50 [2, 8]: 50.9 µM; IC50 [1, 9]: 71.9 µM; Selectivity ratio rl/pc [3]: 1.4; Selectivity Ratio RL/Pc ([3]; Table 16): 1.4
3 | CN(Cc1coc2nc(N)nc(N)c12)c1ccc(Cl)c(Cl)c1 [Compound 171, 2,4-Diamino-5-[(N-methyl-3′,4′-dichloroanilino)methyl]furo[2,3-d]pyrimidine] |  |  |  |  |  |  | IC50 [4, 10]: > 27 µM; IC50 [4, 11]: > 27 µM; IC50 [2, 7]: 44.8 µM; IC50 [2, 8]: 44.8 µM; IC50 [1, 6]: > 27 µM; IC50 [1, 9]: > 27 µM
4 | CN(Cc1coc2nc(N)nc(N)c12)c1cc(Cl)c(Cl)c(Cl)c1 [Compound 172, 2,4-Diamino-5-[(N-methyl-3′,4′,5′-trichloroanilino)methyl]furo[2,3-d]-pyrimidine] |  |  |  |  |  |  | IC50 [2, 7]: 284 µM; IC50 [2, 8]: 284 µM
5 | COc1cccc(NCc2coc3nc(N)nc(N)c23)c1 [Compound 175, 2,4-Diamino-5-[(3′-methoxyanilino)methyl]furo[2,3-d]-pyrimidine] |  |  |  |  |  |  | IC50 [4, 10]: > 31.3 µM; IC50 [4, 11]: > 31.3 µM; IC50 [2, 7]: > 31.3 µM; IC50 [2, 8]: > 31.3 µM; IC50 [1, 6]: > 31.3 µM; IC50 [1, 9]: > 31.3 µM
6 | COc1ccc(OC)c(NCc2c[nH]c3nc(N)nc(O)c23)c1 [Compound 408] | 2.2 µM | >21 | > 47 µM | > 47 µM | > 160 µM | 21% | 
7 | COc1cc(NCc2c[nH]c3nc(N)[nH]c(=O)c23)cc(OC)c1 [Compound 409] | 2.6 µM | >8 | > 20 µM | > 20 µM | > 160 µM | 0% | 
8 | COc1ccc(NCc2c[nH]c3nc(N)[nH]c(=O)c23)c(OC)c1 [Compound 410] | 7.1 µM | >1.4 | > 16 µM | > 16 µM | > 160 µM | 8% | 
9 | COc1cc(NCc2c[nH]c3nc(N)nc(O)c23)cc(OC)c1OC [Compound 411] | 6.9 µM | >3 | > 22 µM | > 22 µM | > 290 µM | 8% | 
10 | Nc1nc(O)c2c(CNc3cc(Cl)cc(Cl)c3)c[nH]c2n1 [Compound 413] | 3 µM | >21 | 66.2 µM | > 63 µM |  |  | 
11 | Nc1nc2[nH]cc(CNc3ccc(Cl)cc3Cl)c2c(=O)[nH]1 [Compound 414] | 2.2 µM | >7 | > 15 µM | > 15 µM |  |  | 
12 | Nc1nc(O)c2c(CNc3cccc(Cl)c3)c[nH]c2n1 [Compound 415] | 3.5 µM | >7 | > 26 µM | > 26 µM | > 180 µM | 26% | 
13 | COc1ccc(OC)c(Cc2cnc3nc(N)nc(N)c3c2C)c1 [PTX, piritrexim, reference compound] |  |  |  |  |  |  | IC50 ([1]; Table 7, read-out: RL DHFR IC50): 0.001 µM
14 | CCOc1cc(Cc2cnc(N)nc2N)cc(OCC)c1-n1cccc1 [epiroprim, reference compound] |  |  |  |  |  |  | Selectivity ratio rl/tg ([4]; IC50 rlDHFR/IC50 tgDHFR): 70.6; IC50 [4, 11]: 0.48 µM; Selectivity ratio rl/pc [3]: 12.8
